Results reported in patent US5932466A, “Creatine amidinohydrolase gene, a novel recombinant DNA, and a process for producing creatine amidinohydrolase” (Kikkoman Corporation, priority 1994, dated 1999).

Tested on: Alcaligenes sp. KS-85 creatine amidinohydrolase, SEQ ID NO: 2 (recombinant, produced in E. coli)
Test: Km determination of creatine amidinohydrolase from Lineweaver-Burk plots
Type: biochemical
Conditions: urea formed quantified, 50 mM phosphate buffer pH 7.7, 37° C.
Method: The measurement of enzyme activity was conducted under the following conditions. 1 U of enzyme activity is defined as the amount which causes formation of 1 μmol of urea per minute.
6.63 g of creatine is dissolved in 500 ml of 50 mM phosphate buffer, pH 7.7.
10 g of .rho.-dimethylaminobenzaldehyde is dissolved in 500 ml ethanol (guaranteed reagent) and then mixed with a mixture of 575 ml deionized water and 75 ml conc. hydrochloric acid.
1) 0.9 ml of Solution 1 is pre-incubated as the substrate at 37° C. for 5 minutes.
2) 0.1 ml enzyme solution (adjusted to about 1-2 U/ml) is mixed with the substrate and allowed to react at 37° C. for 10 minutes.
3) Then, 2 ml of Solution 2 is mixed with the reaction solution.
4) Then, the mixture is allowed to stand at 25° C. for 20 minutes, and the absorbance at 435 nm is determined (OD sample).
5) As the blank, 0.9 ml of Solution 1 is incubated at 37° C. for 10 minutes and then 2 ml of Solution 2 and 0.1 ml enzyme solution are mixed with Solution 1, and the mixture is allowed to stand at 25° C. for 20 minutes, and the absorbance at 435 nm is determined (OD blank).
U/ml=ΔOD×18.06*×dilution degree

CN(CC(=O)O)C(=N)N [creatine]
Km: 13 mM
